# Patent US20070122859A1, “Immunoassay for LSD and 2-oxo-3-hydroxy-LSD” (priority 2000, published 2007)
# Where two headings read alike, the source gives them in different places.
# Assays:
# Clone 1.1 = assay: ELISA antibody cross-reactivity, Clone 1.1; assay type: binding, mouse
# Procedure: (§1) Cross-reactivity of three clones for LSD, nor-LSD and 2-oxo-3-hydroxy-LSD was determined using an ELISA technique. Microtiter plates were coated with 100 μl of 0.325 mg/ml LSD-BSA or 100 μl of 0.325 mg/ml 2-oxo-3-hydroxy-LSD-BSA for 1 hour at 37° C. and post-blocked with 200 μl of 1% BSA in PBS for 1 hour at room temperature. Plates were washed 3 times with 400 μl of PBS-0.1% TWEEN-20. Free LSD, nor-LSD and 2-oxo-3-hydroxy-LSD were diluted to 1000 ng/ml in PBS. Antibody was diluted 8,000 fold. Drug solutions, 200 μl of 1000 ng/ml, solutions were dispensed into the first column of an ELISA plate. The rest of the wells were filled with 100 μl of PBS. Serial dilutions of the drugs were prepared by taking 100 μl of the drug solution out of the first column and dispensing it into the second column of the plate. Contents of the wells were mixed thoroughly by pipetting the solution up and down 5 times. 100 μl out of the second column was dispensed into the third column and mixed as above. The process was repeated for all 12 columns of ELISA plates. 100 μl of solution out of the last wells was discarded. 100 μl of antibody diluted 8,000 fold was added to each well. Resulting concentrations of the drug were 500 ng/ml, 250 ng/ml, 125 ng/ml, 62.5 ng/ml, 31.2 ng/ml, 15.6 ng/ml, 7.81 ng/ml, 3.90 ng/ml, 1.95 ng/ml, 0.976 ng/ml, 0.488 ng/ml, 0.244 ng/ml. Final antibody dilution was 16,000 fold. Plates were incubated for 1 hour at 37° C. and washed 3 times with PBS-TWEEN-20. Rabbit anti-mouse HRP conjugated IgG was diluted 5,000 fold and 100 μl were added to ELISA plates. The plates were incubated for 1 hour at 37° C. and washed 3 times with PBS-TWEEN-20. 100 μl of K-BLUE substrate was dispensed into each well. Plates were incubated for 30 min at room temperature in the dark. The reaction was stopped with 100 μl of 2 M H3PO4, and absorbance was read at 450 nm.
# Clone 2.1 = assay: ELISA antibody cross-reactivity, Clone 2.1; assay type: binding, mouse
# Procedure: as §1
# Clone 20.2 = assay: ELISA antibody cross-reactivity, Clone 20.2; assay type: binding, mouse
# Procedure: as §1
# [1] = test system: antibodies specific for LSD; conditions: EMIT (Syva Company) immunoassay; cited from earlier work
# [2] = test system: antibodies specific for LSD; conditions: CEDIA (Microgenics Corporation) immunoassay; cited from earlier work
# [3] = test system: antibodies specific for LSD; conditions: KIMS (Roche Diagnostics) immunoassay; cited from earlier work
# [4] = cited from earlier work
# [5] = Dilution 0.2 (free drug 0.244 ng/ml)
# [6] = Dilution 0.5 (free drug 0.488 ng/ml)
# [7] = Dilution 1.0 (free drug 0.976 ng/ml)
# [8] = Dilution 2.0 (free drug 1.95 ng/ml)
# [9] = Dilution 3.9 (free drug 3.90 ng/ml)
# [10] = Dilution 7.8 (free drug 7.81 ng/ml)
# [11] = Dilution 15.6 (free drug 15.6 ng/ml)
# [12] = Dilution 31.3 (free drug 31.2 ng/ml)
# [13] = Dilution 62.5 (free drug 62.5 ng/ml)
# [14] = Dilution 125.0 (free drug 125 ng/ml)
# [15] = Dilution 250.0 (free drug 250 ng/ml)
# [16] = Dilution 500.0 (free drug 500 ng/ml)
# [17] = based upon specificity to 2-oxo-3-hydroxy-LSD
smiles,measurement,setting,value
"CCN(CC)C(=O)[C@@H]1C=C2c3cccc4c3C(O)(C[C@H]2N(C)C1)C(=O)N4 (stereo partly drawn) [2-oxo-3-hydroxy-LSD, 2-oxo-3-hydroxy-d-lysergic acid diethylamide]",A450,Clone 1.1; [5],3.913
same,A450,Clone 1.1; [6],3.928
same,A450,Clone 1.1; [7],4.033
same,A450,Clone 1.1; [8],4.015
same,A450,Clone 1.1; [9],3.908
same,A450,Clone 1.1; [10],3.914
same,A450,Clone 1.1; [11],3.310
same,A450,Clone 1.1; [12],3.108
same,A450,Clone 1.1; [13],2.278
same,A450,Clone 1.1; [14],1.768
same,A450,Clone 1.1; [15],1.425
same,A450,Clone 1.1; [16],0.871
same,Calculated percentage cross-reactivity,Clone 1.1; [17],100.0%
same,Calculated percentage cross-reactivity,Clone 1.1; based upon specificity to LSD,133.6%
same,A450,Clone 2.1; [5],0.846
same,A450,Clone 2.1; [6],0.690
same,A450,Clone 2.1; [7],0.552
same,A450,Clone 2.1; [8],0.531
same,A450,Clone 2.1; [9],0.372
same,A450,Clone 2.1; [10],0.321
same,A450,Clone 2.1; [11],0.294
same,A450,Clone 2.1; [12],0.309
same,A450,Clone 2.1; [13],0.243
same,A450,Clone 2.1; [14],0.256
same,A450,Clone 2.1; [15],0.297
same,A450,Clone 2.1; [16],0.243
same,Calculated percentage cross-reactivity,Clone 2.1; [17],100.0%
same,Calculated percentage cross-reactivity,Clone 2.1; based upon specificity to LSD,131.4%
same,A450,Clone 20.2; [5],0.838
same,A450,Clone 20.2; [6],0.704
same,A450,Clone 20.2; [7],0.430
same,A450,Clone 20.2; [8],0.372
same,A450,Clone 20.2; [9],0.316
same,A450,Clone 20.2; [10],0.272
same,A450,Clone 20.2; [11],0.220
same,A450,Clone 20.2; [12],0.148
same,A450,Clone 20.2; [13],0.142
same,A450,Clone 20.2; [14],0.143
same,A450,Clone 20.2; [15],0.144
same,A450,Clone 20.2; [16],0.142
same,Calculated percentage cross-reactivity,Clone 20.2; [17],100.0%
same,Calculated percentage cross-reactivity,Clone 20.2; based upon specificity to LSD,118.5%
same,cross-reactivity,[1],1.7%
same,cross-reactivity,[2],1.8%
same,cross-reactivity,[3],11%
same,time detectable after ingestion of the drug,"[4]; urine, compared with LSD",can be detected for a longer time than LSD
"CCN(CC)C(=O)[C@@H]1C=C2c3cccc4[nH]cc(c34)C[C@H]2N(C)C1 [LSD, 9,10-didehydro-N,N-diethyl-6-methylergoline-8β-carboxamide]",A450,Clone 1.1; [5],3.797
same,A450,Clone 1.1; [6],4.085
same,A450,Clone 1.1; [7],3.962
same,A450,Clone 1.1; [8],3.905
same,A450,Clone 1.1; [9],3.951
same,A450,Clone 1.1; [10],3.831
same,A450,Clone 1.1; [11],3.519
same,A450,Clone 1.1; [12],3.390
same,A450,Clone 1.1; [13],2.633
same,A450,Clone 1.1; [14],2.050
same,A450,Clone 1.1; [15],1.433
same,A450,Clone 1.1; [16],0.831
same,Calculated percentage cross-reactivity,Clone 1.1; [17],74.9%
same,Calculated percentage cross-reactivity,Clone 1.1; based upon specificity to LSD,100.0%
same,A450,Clone 2.1; [5],0.831
same,A450,Clone 2.1; [6],0.738
same,A450,Clone 2.1; [7],0.579
same,A450,Clone 2.1; [8],0.523
same,A450,Clone 2.1; [9],0.435
same,A450,Clone 2.1; [10],0.339
same,A450,Clone 2.1; [11],0.303
same,A450,Clone 2.1; [12],0.294
same,A450,Clone 2.1; [13],0.252
same,A450,Clone 2.1; [14],0.240
same,A450,Clone 2.1; [15],0.234
same,A450,Clone 2.1; [16],0.236
same,Calculated percentage cross-reactivity,Clone 2.1; [17],76.1%
same,Calculated percentage cross-reactivity,Clone 2.1; based upon specificity to LSD,100.0%
same,A450,Clone 20.2; [5],0.833
same,A450,Clone 20.2; [6],0.658
same,A450,Clone 20.2; [7],0.587
same,A450,Clone 20.2; [8],0.328
same,A450,Clone 20.2; [9],0.284
same,A450,Clone 20.2; [10],0.204
same,A450,Clone 20.2; [11],0.160
same,A450,Clone 20.2; [12],0.126
same,A450,Clone 20.2; [13],0.126
same,A450,Clone 20.2; [14],0.124
same,A450,Clone 20.2; [15],0.188
same,A450,Clone 20.2; [16],0.122
same,Calculated percentage cross-reactivity,Clone 20.2; [17],84.4%
same,Calculated percentage cross-reactivity,Clone 20.2; based upon specificity to LSD,100.0%
same,parent drug excreted in human urine,[4]; human urine,about 1%
"CCN(CC)C(=O)[C@@H]1C=C2c3cccc4[nH]cc(c34)C[C@H]2NC1 [nor-LSD, N-desmethyl-LSD]",A450,Clone 1.1; [5],4.019
same,A450,Clone 1.1; [6],4.074
same,A450,Clone 1.1; [7],4.100
same,A450,Clone 1.1; [8],3.884
same,A450,Clone 1.1; [9],4.035
same,A450,Clone 1.1; [10],3.805
same,A450,Clone 1.1; [11],3.740
same,A450,Clone 1.1; [12],3.735
same,A450,Clone 1.1; [13],3.601
same,A450,Clone 1.1; [14],3.512
same,A450,Clone 1.1; [15],3.340
same,A450,Clone 1.1; [16],2.968
same,Calculated percentage cross-reactivity,Clone 1.1; [17],1.9%
same,Calculated percentage cross-reactivity,Clone 1.1; based upon specificity to LSD,2.6%
same,A450,Clone 2.1; [5],0.900
same,A450,Clone 2.1; [6],0.859
same,A450,Clone 2.1; [7],0.842
same,A450,Clone 2.1; [8],0.792
same,A450,Clone 2.1; [9],0.786
same,A450,Clone 2.1; [10],0.696
same,A450,Clone 2.1; [11],0.648
same,A450,Clone 2.1; [12],0.504
same,A450,Clone 2.1; [13],0.444
same,A450,Clone 2.1; [14],0.384
same,A450,Clone 2.1; [15],0.318
same,A450,Clone 2.1; [16],0.276
same,Calculated percentage cross-reactivity,Clone 2.1; [17],1.8%
same,Calculated percentage cross-reactivity,Clone 2.1; based upon specificity to LSD,2.3%
same,A450,Clone 20.2; [5],0.908
same,A450,Clone 20.2; [6],0.866
same,A450,Clone 20.2; [7],0.853
same,A450,Clone 20.2; [8],0.799
same,A450,Clone 20.2; [9],0.722
same,A450,Clone 20.2; [10],0.656
same,A450,Clone 20.2; [11],0.584
same,A450,Clone 20.2; [12],0.464
same,A450,Clone 20.2; [13],0.416
same,A450,Clone 20.2; [14],0.292
same,A450,Clone 20.2; [15],0.228
same,A450,Clone 20.2; [16],0.288
same,Calculated percentage cross-reactivity,Clone 20.2; [17],4.6%
same,Calculated percentage cross-reactivity,Clone 20.2; based upon specificity to LSD,5.5%
